Test results reported in PubChem BioAssay AID248 (DTP/NCI, 2004).
Where “and” joins values, the source holds several entries; their conditions need not be identical. Equal values may be shown once. Toxic doses and inconclusive results are not listed. Cut-off read from the data, not from the text of the source: active = T/C of 150% or more; inactive = T/C below 125%.

System: L1210 leukemia ip in BDF1 mice, survival T/C
Assay: NCI In Vivo Anticancer Drug Screen. Data for tumor model L1210 Leukemia (intraperitoneal) in B6D2F1 (BDF1) mice
Settings: endpoint: mean survival time, higher = longer survival
Method in brief: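 Transplanted-tumor mice were given test agent; controls received vehicle only. Survival readings from the two groups were divided (treated over control).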

[1] = dose: 100.0 mg/kg/injection, schedule: Q01DX001 (ip), vehicle: saline
[2] = dose: 200.0 mg/kg/injection, schedule: Q01DX001 (ip), vehicle: saline
[3] = dose: 25.0 mg/kg/injection, schedule: Q01DX009 (ip), vehicle: saline
[4] = dose: 50.0 mg/kg/injection, schedule: Q01DX009 (ip), vehicle: saline
[5] = dose: 100.0 mg/kg/injection, schedule: Q01DX009 (ip), vehicle: Klucel (hydroxypropylcellulose) (HPC)
[6] = dose: 100.0 mg/kg/injection, schedule: Q04DX003 (ip), vehicle: Klucel (hydroxypropylcellulose) (HPC)
[7] = dose: 200.0 mg/kg/injection, schedule: Q01DX009 (ip), vehicle: Klucel (hydroxypropylcellulose) (HPC)
[8] = dose: 200.0 mg/kg/injection, schedule: Q04DX003 (ip), vehicle: Klucel (hydroxypropylcellulose) (HPC)
[9] = dose: 400.0 mg/kg/injection, schedule: Q01DX009 (ip), vehicle: Klucel (hydroxypropylcellulose) (HPC)
[10] = dose: 200.0 mg/kg/injection, schedule: Q04DX003 (ip), vehicle: saline with Tween-80
[11] = dose: 400.0 mg/kg/injection, schedule: Q04DX003 (ip), vehicle: saline with Tween-80
[12] = dose: 400.0 mg/kg/injection, schedule: Q04DX003 (ip), vehicle: Klucel (hydroxypropylcellulose) (HPC)

Measured: T/C

Cc1cccc(OCCOc2cccc(C)c2)c1
inactive: [1] 98 % of control | [2] 94 % of control

CCC1COC(=O)N1 (stereo not drawn)
inactive: [3] 102 % of control | dose: 50.0 mg/kg/injection, schedule: Q01DX001 (ip), vehicle: saline 95 % of control | [4] 105 % of control | [1] 100 % of control

CC(=O)OC1CCC2(C)C(=CCC3C2CCC2(C)C(C(C)N)CCC32)C1 (stereo not drawn)
inactive: dose: 100.0 mg/kg/injection, schedule: Q01DX001 (sc), vehicle: steriod suspending solution 90 % of control | dose: 400.0 mg/kg/injection, schedule: Q01DX001 (sc), vehicle: steriod suspending solution 90 % of control

CCC1/C=C/C=C/CC(C)C(O)C(C)(O)C(=O)C(C)C(O)C(C)C(=O)C(C)C(O)C(C)/C=C/C(=O)OC2C(C)C(CC1)OC1(OC(CC(C)O)C(C)CC1=O)C2C (stereo not drawn) (tested in a mixture with another compound)
inactive: dose: 0.08 mg/kg/injection, schedule: Q01DX009 (ip), vehicle: saline 102 % of control | dose: 0.16 mg/kg/injection, schedule: Q01DX009 (ip), vehicle: saline 103 % of control | dose: 0.16 mg/kg/injection, schedule: Q04DX003 (ip), vehicle: saline 117 % of control | dose: 0.31 mg/kg/injection, schedule: Q01DX009 (ip), vehicle: saline 102 % of control | dose: 0.32 mg/kg/injection, schedule: Q01DX001 (ip), vehicle: saline 118 % of control | dose: 0.32 mg/kg/injection, schedule: Q01DX009 (ip), vehicle: saline 113 % of control | dose: 0.32 mg/kg/injection, schedule: Q04DX003 (ip), vehicle: saline 117 % of control | dose: 0.44 mg/kg/injection, schedule: Q01DX Z (ip), vehicle: other 114 % of control | dose: 0.44 mg/kg/injection, schedule: Q01DX Z (ip), vehicle: saline 100 % of control | dose: 0.47 mg/kg/injection, schedule: Q01DX009 (ip), vehicle: saline with Tween-80 120 % of control | dose: 0.47 mg/kg/injection, schedule: Q01DX009 (ip), vehicle: saline 101 % of control | dose: 0.63 mg/kg/injection, schedule: Q01DX009 (ip), vehicle: saline 104 % of control | dose: 0.66 mg/kg/injection, schedule: Q01DX Z (ip), vehicle: other 122 % of control | dose: 0.66 mg/kg/injection, schedule: Q01DX Z (ip), vehicle: saline 96 % of control | dose: 0.7 mg/kg/injection, schedule: Q01DX009 (ip), vehicle: saline 102 % of control | dose: 0.8 mg/kg/injection, schedule: Q01DX Z (ip), vehicle: methylcellulose (MC) 110 % of control | dose: 1.0 mg/kg/injection, schedule: Q01DX Z (ip), vehicle: saline 109 % of control and 116 % of control | dose: 1.2 mg/kg/injection, schedule: Q01DX Z (ip), vehicle: methylcellulose (MC) 106 % of control | dose: 1.25 mg/kg/injection, schedule: Q01DX009 (ip), vehicle: saline 102 % of control | dose: 1.5 mg/kg/injection, schedule: Q01DX Z (ip), vehicle: other 115 % of control | dose: 1.5 mg/kg/injection, schedule: Q01DX Z (ip), vehicle: saline 102 % of control and 118 % of control | dose: 1.8 mg/kg/injection, schedule: Q01DX Z (ip), vehicle: methylcellulose (MC) 106 % of control | dose: 2.5 mg/kg/injection, schedule: Q01DX009 (ip), vehicle: saline 96 % of control | dose: 2.6 mg/kg/injection, schedule: Q01DX001 (ip), vehicle: saline 112 % of control | dose: 2.7 mg/kg/injection, schedule: Q01DX Z (ip), vehicle: methylcellulose (MC) 107 % of control | dose: 4.0 mg/kg/injection, schedule: Q01DX001 (ip), vehicle: saline 117 % of control | dose: 4.0 mg/kg/injection, schedule: Q01DX Z (ip), vehicle: methylcellulose (MC) 102 % of control | dose: 5.0 mg/kg/injection, schedule: Q01DX009 (ip), vehicle: saline 110 % of control | dose: 6.0 mg/kg/injection, schedule: Q01DX001 (ip), vehicle: saline 123 % of control | dose: 8.0 mg/kg/injection, schedule: Q01DX Z (ip), vehicle: methylcellulose (MC) 92 % of control | dose: 10.0 mg/kg/injection, schedule: Q01DX009 (ip), vehicle: saline 124 % of control

O=C(/C=C(\C(=O)c1ccccc1)c1ccccc1)c1ccccc1
inactive: dose: 50.0 mg/kg/injection, schedule: Q04DX003 (ip), vehicle: Klucel (hydroxypropylcellulose) (HPC) 95 % of control | [1] 92 % of control | [5] 95 % of control | [6] 101 % of control | dose: 200.0 mg/kg/injection, schedule: Q01DX001 (ip), vehicle: saline with Tween-80 90 % of control | [2] 95 % of control | [7] 102 % of control | [8] 102 % of control | [9] 98 % of control

COC(=O)C(CSCSC)NC(=O)/C=C\c1ccccc1 (stereo not drawn)
inactive: dose: 100.0 mg/kg/injection, schedule: Q01DX009 (ip), vehicle: saline with Tween-80 88 % of control | dose: 100.0 mg/kg/injection, schedule: Q04DX003 (ip), vehicle: saline with Tween-80 97 % of control | dose: 200.0 mg/kg/injection, schedule: Q01DX009 (ip), vehicle: saline with Tween-80 88 % of control | [10] 97 % of control | dose: 400.0 mg/kg/injection, schedule: Q01DX009 (ip), vehicle: saline with Tween-80 96 % of control | [11] 94 % of control

c1ccc2c(c1)Cc1nc3ccccc3nc1-2
inactive: dose: 25.0 mg/kg/injection, schedule: Q01DX009 (ip), vehicle: water 93 % of control | dose: 50.0 mg/kg/injection, schedule: Q01DX009 (ip), vehicle: water 91 % of control | dose: 100.0 mg/kg/injection, schedule: Q01DX009 (ip), vehicle: water 101 % of control | dose: 200.0 mg/kg/injection, schedule: Q01DX009 (ip), vehicle: water 93 % of control | dose: 400.0 mg/kg/injection, schedule: Q01DX009 (ip), vehicle: water 96 % of control

CC1(C)c2ccccc2C(O)(CCl)c2ccccc21
inactive: [6] 104 % of control | [8] 112 % of control | [12] 94 % of control

Nc1ccccc1S(=O)(=O)Nc1ccccc1
inactive: [5] 98 % of control | [6] 92 % of control | [7] 95 % of control | [8] 97 % of control | [9] 87 % of control | [12] 100 % of control

COC(=O)C(C)CN1CCCC1 (stereo not drawn)
inactive: dose: 12.5 mg/kg/injection, schedule: Q01DX009 (ip), vehicle: saline 97 % of control | [3] 88 % of control | dose: 25.0 mg/kg/injection, schedule: Q04DX003 (ip), vehicle: saline 98 % of control | [4] 100 % of control | dose: 50.0 mg/kg/injection, schedule: Q04DX003 (ip), vehicle: saline 107 % of control | dose: 100.0 mg/kg/injection, schedule: Q04DX003 (ip), vehicle: saline 104 % of control

O=C(COc1ccc(Cl)cc1)N(c1ccccc1)C1CCCCC1
inactive: [5] 96 % of control | [7] 96 % of control | [9] 94 % of control

Cc1cc(O)c(C(C)C)cc1C1=NCC(C)S1 (stereo not drawn)
inactive: dose: 100.0 mg/kg/injection, schedule: Q01DX005 (ip), vehicle: Klucel (hydroxypropylcellulose) (HPC) 93 % of control | [5] 102 % of control | dose: 100.0 mg/kg/injection, schedule: Q04DX002 (ip), vehicle: Klucel (hydroxypropylcellulose) (HPC) 100 % of control | dose: 200.0 mg/kg/injection, schedule: Q01DX005 (ip), vehicle: Klucel (hydroxypropylcellulose) (HPC) 90 % of control | [7] 102 % of control | dose: 200.0 mg/kg/injection, schedule: Q04DX002 (ip), vehicle: Klucel (hydroxypropylcellulose) (HPC) 104 % of control | dose: 400.0 mg/kg/injection, schedule: Q01DX005 (ip), vehicle: Klucel (hydroxypropylcellulose) (HPC) 97 % of control | [9] 87 % of control | dose: 400.0 mg/kg/injection, schedule: Q04DX002 (ip), vehicle: Klucel (hydroxypropylcellulose) (HPC) 107 % of control

CC(C)N=C(c1ccccc1)N(O)c1ccccc1
inactive: dose: 75.0 mg/kg/injection, schedule: Q01DX001 (ip), vehicle: saline 93 % of control | dose: 150.0 mg/kg/injection, schedule: Q01DX001 (ip), vehicle: saline 101 % of control | dose: 300.0 mg/kg/injection, schedule: Q01DX001 (ip), vehicle: saline 91 % of control

O=C1CCc2cccc(O)c2N1
inactive: [1] 103 % of control | [2] 103 % of control

Cc1ccc(S(=O)(=O)Nc2cc(Cl)c(I)cc2Cl)cc1
inactive: [10] 90 % of control | [11] 101 % of control
